Results: patent publication US20170283862A1, “GENETIC TESTING FOR PREDICTING RESISTANCE OF KLEBSIELLA SPECIES AGAINST ANTIMICROBIAL AGENTS” (priority 2014, published 2017)

Test system: K. pneumoniae isolates
Test: Gene dosage effects: AUC of normalized median coverage per gene, resistant vs susceptible isolates
Design: unit not given here
Conditions: best MIC break
Method: Since a potential reason for drug resistance is gene duplication, gene dose dependency was evaluated. For each sample the genomic coverage for each position was determined using BED Tools. Gene ranges were extracted from the reference assemblies NC_009648.gff and NC_016612.gff and the normalized median coverage per gene was calculated. To compare low- and high-resistance isolates the best area under the curve (AUC) value was computed.
To estimate the difference in coverage we calculated AUC values for the normalized median coverage per gene in the two groups.

[1] = gene KPN_00957: 1081235-1081342
[2] = gene KPN_01607: 1784144-1785004
[3] = gene KPN_01784: 1966562-1967182
[4] = gene KPN_02272: 2484450-2485832
[5] = gene KPN_03336: 3652949-3653470
[6] = gene KPN_04541: 4973659-4974345
[7] = gene KPN_01776: 1957110-1958672
[8] = gene KPN_01790: 1972135-1973631

| Compound | BEST_BREAK [1] | BEST_BREAK [2] | BEST_BREAK [3] | BEST_BREAK [4] | BEST_BREAK [5] | BEST_BREAK (gene KPN_04540: 4971080-4973572) | BEST_BREAK [6] | BEST_BREAK (gene rmlC: 2715683-2716237) | BEST_BREAK (gene rmlC: 2723257-2723811) | BEST_BREAK (gene ygbI: 1783401-1784123) | BEST_BREAK (gene KPN_01766: 1947966-1948751) | BEST_BREAK (gene KPN_01767: 1948966-1949805) | BEST_BREAK (gene KPN_01772: 1953630-1954052) | BEST_BREAK (gene KPN_01773: 1954090-1955208) | BEST_BREAK [7] | BEST_BREAK [8] | BEST_BREAK (gene stbA: 300128-300664) | BEST_BREAK (gene ygbJ: 1782199-1783101) | BEST_BREAK (gene ygbK: 1780922-1782187) | BEST_BREAK (gene KPN_00596: 673027-673989) |
| --- | --- | --- | --- | --- | --- | --- | --- | --- | --- | --- | --- | --- | --- | --- | --- | --- | --- | --- | --- | --- |
| Amoxicillin/K Clavulanate | 64 | 8 | 32 | 64 | 32 | 32 | 32 | 64.1 | 64.1 | 8 | – | – | – | – | – | – | – | – | – | – |
| Piperacillin/Tazobactam | 8 | 128 | 128 | 256.1 | 256 | – | 64 | – | 256.1 | 128 | 128 | 128 | 128 | 64 | 128 | 128 | 128 | 128 | 128 | – |
| CC1(C)S[C@@H]2[C@H](NC(=O)[C@H](N)c3ccccc3)C(=O)N2[C@H]1C(=O)O [Ampicillin] | 128.1 | 128.1 | – | – | – | – | – | – | – | – | – | – | – | – | – | – | – | – | – | – |
| Gentamicin | 1 | 1 | 1 | – | – | – | – | – | – | – | – | – | – | – | 1 | – | – | – | – | 2 |
| Ampicillin/Sulbactam | 32 | 64.1 | 64.1 | – | – | – | 64.1 | – | 64.1 | 64.1 | – | – | – | – | 64.1 | 64.1 | – | 64.1 | 64.1 | – |
